Inconclusive results and toxic doses are left out. No stated cut-off is given here; in the data, active means T/C of 150% or more; inactive means T/C below 125%.
Test system: L1210 leukemia ip in BDF1 mice, survival T/C
Test: NCI In Vivo Anticancer Drug Screen. Data for tumor model L1210 Leukemia (intraperitoneal) in B6D2F1 (BDF1) mice
Conditions: endpoint: mean survival time, higher = longer survival
Summary of the method: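 Tumor was transplanted into mice, which were then dosed with test compound or vehicle alone. Survival was recorded for each group, and the treated figure was expressed relative to the control figure.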

[1] = dose: 100.0 mg/kg/injection, schedule: Q01DX001 (ip), vehicle: saline
[2] = dose: 200.0 mg/kg/injection, schedule: Q01DX001 (ip), vehicle: saline
[3] = dose: 400.0 mg/kg/injection, schedule: Q01DX001 (ip), vehicle: saline
[4] = dose: 50.0 mg/kg/injection, schedule: Q01DX009 (ip), vehicle: Klucel (hydroxypropylcellulose) (HPC)
[5] = dose: 100.0 mg/kg/injection, schedule: Q01DX009 (ip), vehicle: Klucel (hydroxypropylcellulose) (HPC)
[6] = dose: 100.0 mg/kg/injection, schedule: Q04DX003 (ip), vehicle: Klucel (hydroxypropylcellulose) (HPC)
[7] = dose: 200.0 mg/kg/injection, schedule: Q01DX009 (ip), vehicle: Klucel (hydroxypropylcellulose) (HPC)
[8] = dose: 200.0 mg/kg/injection, schedule: Q04DX003 (ip), vehicle: Klucel (hydroxypropylcellulose) (HPC)
[9] = dose: 400.0 mg/kg/injection, schedule: Q01DX009 (ip), vehicle: Klucel (hydroxypropylcellulose) (HPC)
[10] = dose: 400.0 mg/kg/injection, schedule: Q04DX003 (ip), vehicle: Klucel (hydroxypropylcellulose) (HPC)
[11] = dose: 100.0 mg/kg/injection, schedule: Q04DX002 (ip), vehicle: Klucel (hydroxypropylcellulose) (HPC)
[12] = dose: 200.0 mg/kg/injection, schedule: Q04DX002 (ip), vehicle: Klucel (hydroxypropylcellulose) (HPC)
[13] = dose: 75.0 mg/kg/injection, schedule: Q04DX003 (ip), vehicle: Klucel (hydroxypropylcellulose) (HPC)
[14] = dose: 150.0 mg/kg/injection, schedule: Q04DX003 (ip), vehicle: Klucel (hydroxypropylcellulose) (HPC)
[15] = dose: 300.0 mg/kg/injection, schedule: Q04DX003 (ip), vehicle: Klucel (hydroxypropylcellulose) (HPC)
[16] = dose: 400.0 mg/kg/injection, schedule: Q04DX002 (ip), vehicle: Klucel (hydroxypropylcellulose) (HPC)

Measured: T/C

CC(=O)c1ccccc1OC(F)(F)C(F)Cl (centres undefined)
inactive: [1] 101 % of control | [2] 103 % of control | [3] 103 % of control

CCN(CC)Cc1ncccc1O
inactive: [4] 106 % of control | [5] 106 % of control | [6] 105 % of control | [7] 93 % of control | [8] 104 % of control

CN(C)c1ccc(C(=O)c2ccccc2)cc1
inactive: [4] 101 % of control | [5] 108 % of control | [6] 100 % of control | [7] 95 % of control | [8] 105 % of control | [9] 102 % of control | [10] 100 % of control

O=S(=O)(/C=C\c1ccccc1)N(c1ccccc1)c1ccccc1
inactive: [6] 102 % of control | [8] 110 % of control | [10] 96 % of control

COC(=O)NC1CC(CO)CC1O (centres undefined)
inactive: [4] 91 % of control | [5] 89 % of control | [7] 91 % of control

O=S(=O)(N=S(CCCl)CCCl)c1ccccc1
inactive: [11] 111 % of control | [12] 111 % of control

S=C(Nc1ccc(C2=NCCN2)cc1)c1ccc(C(=S)Nc2ccc(C3=NCCN3)cc2)cc1
active: dose: 15.0 mg/kg/injection, schedule: Q01DX Z (ip), vehicle: carboxymethylcellulose (CMC) 219 % of control | dose: 30.0 mg/kg/injection, schedule: Q01DX Z (ip), vehicle: carboxymethylcellulose (CMC) 182 % of control | dose: 60.0 mg/kg/injection, schedule: Q01DX Z (ip), vehicle: carboxymethylcellulose (CMC) 171 % of control
inactive: dose: 1.0 mg/kg/injection, schedule: Q01DX Z (ip), vehicle: saline 108 % of control | dose: 2.0 mg/kg/injection, schedule: Q01DX Z (ip), vehicle: saline 108 % of control | dose: 4.0 mg/kg/injection, schedule: Q01DX Z (ip), vehicle: saline 124 % of control | dose: 30.0 mg/kg/injection, schedule: Q01DX Z (oral), vehicle: saline 103 % of control | dose: 60.0 mg/kg/injection, schedule: Q01DX Z (oral), vehicle: saline 101 % of control | dose: 120.0 mg/kg/injection, schedule: Q01DX Z (oral), vehicle: saline 98 % of control | dose: 240.0 mg/kg/injection, schedule: Q01DX Z (oral), vehicle: saline 101 % of control | dose: 480.0 mg/kg/injection, schedule: Q01DX Z (oral), vehicle: saline 101 % of control | dose: 960.0 mg/kg/injection, schedule: Q01DX Z (oral), vehicle: saline 101 % of control

[O-][P+](=NC12CC3CC(CC(C3)C1)C2)c1ccccc1 (centres undefined)
inactive: [13] 99 % of control | [14] 101 % of control | [15] 100 % of control

Cc1cccc(C2NC(=O)c3ccccc3N2)c1 (centres undefined)
inactive: [6] 91 % of control | [8] 112 % of control | [10] 91 % of control

C/C=C(\Nc1ccc([N+](=O)[O-])cc1[N+](=O)[O-])C(=O)OC
inactive: [1] 101 % of control | [2] 98 % of control | [3] 101 % of control

Cc1cc(Cl)cc(CN(C)Cc2c(C)[nH]c(=O)[nH]c2=O)c1O
inactive: dose: 100.0 mg/kg/injection, schedule: Q01DX001 (ip), vehicle: carboxymethylcellulose (CMC) 97 % of control | dose: 200.0 mg/kg/injection, schedule: Q01DX001 (ip), vehicle: carboxymethylcellulose (CMC) 94 % of control | dose: 400.0 mg/kg/injection, schedule: Q01DX001 (ip), vehicle: carboxymethylcellulose (CMC) 97 % of control

S=C(c1cccs1)N1CCN(c2ccccc2)CC1
inactive: [1] 97 % of control | [2] 95 % of control | [3] 97 % of control

CCOC(=O)CN1C(=O)Cc2ccccc21
inactive: dose: 75.0 mg/kg/injection, schedule: Q04DX002 (ip), vehicle: saline with Tween-80 101 % of control | dose: 150.0 mg/kg/injection, schedule: Q04DX002 (ip), vehicle: saline with Tween-80 108 % of control | dose: 300.0 mg/kg/injection, schedule: Q04DX002 (ip), vehicle: saline with Tween-80 104 % of control

CN(C(=O)/C=C/c1ccccc1)C1CCCCC1
inactive: [5] 101 % of control | [7] 110 % of control | [9] 111 % of control

CCOP(=O)(OCCBr)C(c1ccccc1)(c1ccccc1)c1ccccc1 (centres undefined)
inactive: [11] 89 % of control | [12] 92 % of control | [16] 92 % of control

CCCCCCCCCCCCCCCCNc1cccc2ccccc12
inactive: [6] 90 % of control | [8] 90 % of control | [10] 91 % of control

Cc1ccc(S(=O)(=O)NS(=O)(=O)c2ccc(C)cc2)cc1
inactive: [1] 101 % of control | [6] 100 % of control | [2] 106 % of control

CC(C)(Oc1ccc(Cl)cc1)C(=O)NC(N)=O
inactive: dose: 50.0 mg/kg/injection, schedule: Q01DX009 (ip), vehicle: saline 95 % of control | dose: 100.0 mg/kg/injection, schedule: Q01DX009 (ip), vehicle: saline 113 % of control | dose: 200.0 mg/kg/injection, schedule: Q01DX009 (ip), vehicle: saline 103 % of control

CCOP(=O)(Cc1ccccc1)OCC
inactive: dose: 100.0 mg/kg/injection, schedule: Q04DX003 (ip), vehicle: saline 110 % of control | dose: 200.0 mg/kg/injection, schedule: Q04DX003 (ip), vehicle: saline 103 % of control | dose: 400.0 mg/kg/injection, schedule: Q04DX003 (ip), vehicle: saline 98 % of control

ClCc1cc(OCc2ccccc2)ccc1OCc1ccccc1
inactive: [13] 86 % of control | dose: 100.0 mg/kg/injection, schedule: Q01DX001 (ip), vehicle: Klucel (hydroxypropylcellulose) (HPC) 101 % of control | [14] 91 % of control | dose: 200.0 mg/kg/injection, schedule: Q01DX001 (ip), vehicle: Klucel (hydroxypropylcellulose) (HPC) 94 % of control | [15] 86 % of control | dose: 400.0 mg/kg/injection, schedule: Q01DX001 (ip), vehicle: Klucel (hydroxypropylcellulose) (HPC) 97 % of control

c1ccc(P(CC[As](c2ccccc2)c2ccccc2)CC[As](c2ccccc2)c2ccccc2)cc1
inactive: [6] 93 % of control | [8] 93 % of control | [10] 96 % of control

Cc1ccc(C(=O)N/N=C/c2ccc(N(C)C)cc2Cl)cc1
inactive: dose: 100.0 mg/kg/injection, schedule: Q04DX002 (ip), vehicle: saline 105 % of control | dose: 200.0 mg/kg/injection, schedule: Q04DX002 (ip), vehicle: saline 108 % of control | dose: 400.0 mg/kg/injection, schedule: Q04DX002 (ip), vehicle: saline 105 % of control

CCCCCCCCCCCCCCCCCCNC(=O)N(c1ccccc1)C1CCCCC1
inactive: [11] 101 % of control | [12] 93 % of control | [16] 87 % of control

N=c1c2ncn(C3OC(CO)C(O)C3O)c2ncn1O (centres undefined)
inactive: dose: 50.0 mg/kg/injection, schedule: Q01DX001 (ip), vehicle: saline 101 % of control | dose: 75.0 mg/kg/injection, schedule: Q01DX001 (ip), vehicle: saline 111 % of control | [1] 103 % of control | dose: 150.0 mg/kg/injection, schedule: Q01DX001 (ip), vehicle: saline 105 % of control

Cc1ccc(NS(=O)(=O)c2ccc(F)cc2)cc1C
inactive: [5] 95 % of control | [6] 95 % of control | [7] 95 % of control | [8] 105 % of control | [9] 97 % of control | [10] 101 % of control

O=C(O)c1[nH]c(=O)[nH]c(=O)c1F.[Ga]
active: dose: 177.0 mg/kg/injection, schedule: Q01DX001 (ip), vehicle: saline with Tween-80 160 % of control | dose: 200.0 mg/kg/injection, schedule: Q01DX001 (ip), vehicle: saline with Tween-80 174 % of control | dose: 400.0 mg/kg/injection, schedule: Q01DX001 (ip), vehicle: saline with Tween-80 197 % of control
inactive: dose: 50.0 mg/kg/injection, schedule: Q01DX009 (ip), vehicle: saline with Tween-80 109 % of control | dose: 100.0 mg/kg/injection, schedule: Q01DX009 (ip), vehicle: saline with Tween-80 91 % of control | dose: 100.0 mg/kg/injection, schedule: Q04DX003 (ip), vehicle: saline with Tween-80 101 % of control | dose: 200.0 mg/kg/injection, schedule: Q01DX009 (ip), vehicle: saline with Tween-80 99 % of control | dose: 200.0 mg/kg/injection, schedule: Q04DX003 (ip), vehicle: saline with Tween-80 102 % of control

Reference: PubChem BioAssay AID248 (DTP/NCI, 2004)
